{"source": "paper PMC6591251", "about": "“Discovery of potent necroptosis inhibitors targeting RIPK1 kinase activity for the treatment of inflammatory disorder and cancer metastasis” (Cell Death & Disease, 2019)", "experiment_in_all_cases": "RBC kinase panel", "type_in_all_cases": "biochemical", "details_in_all_cases": "ATP 10 μM, Data1, Data2", "key": {"[1]": {"target": "T1, CAMK2d (Homo sapiens, UniProt Q13557)", "T1 construct": "purchased Reaction Biology Corporation", "procedure,_shortened": "(§1)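 The compound (1 μM) was tested in duplicate against each of 369 kinases of human origin, using 10 μM ATP throughout.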"}, "[2]": {"target": "T2, CDK14/cyclin Y (PFTK1) (Homo sapiens, UniProt O94921)", "T2 construct": "purchased Reaction Biology Corporation", "T2 sequence (O94921 whole entry)": "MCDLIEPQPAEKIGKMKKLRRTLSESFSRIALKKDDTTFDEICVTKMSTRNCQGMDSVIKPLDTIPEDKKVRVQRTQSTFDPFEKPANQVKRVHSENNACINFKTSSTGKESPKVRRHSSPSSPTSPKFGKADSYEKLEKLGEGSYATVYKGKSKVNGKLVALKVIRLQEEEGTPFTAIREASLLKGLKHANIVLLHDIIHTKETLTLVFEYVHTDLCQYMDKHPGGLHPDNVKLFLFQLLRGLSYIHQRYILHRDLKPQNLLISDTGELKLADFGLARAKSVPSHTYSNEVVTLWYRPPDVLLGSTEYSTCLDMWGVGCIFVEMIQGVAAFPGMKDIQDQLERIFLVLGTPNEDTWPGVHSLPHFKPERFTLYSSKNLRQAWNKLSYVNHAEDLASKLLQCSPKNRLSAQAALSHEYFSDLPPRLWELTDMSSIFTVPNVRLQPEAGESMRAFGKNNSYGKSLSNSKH", "T2 sequence (Q8ND76 whole entry partner)": "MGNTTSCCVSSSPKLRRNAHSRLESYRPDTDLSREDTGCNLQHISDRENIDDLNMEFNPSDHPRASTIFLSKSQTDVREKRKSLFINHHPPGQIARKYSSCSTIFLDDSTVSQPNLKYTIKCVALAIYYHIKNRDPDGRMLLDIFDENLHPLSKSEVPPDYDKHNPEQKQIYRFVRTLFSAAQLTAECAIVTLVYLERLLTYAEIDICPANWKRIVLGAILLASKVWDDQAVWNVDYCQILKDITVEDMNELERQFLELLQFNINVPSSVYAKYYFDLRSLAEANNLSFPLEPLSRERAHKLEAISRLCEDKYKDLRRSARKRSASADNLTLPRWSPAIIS", "procedure,_shortened": "as §1"}, "[3]": {"target": "T3, CDK17/cyclin Y (PCTK2) (Homo sapiens, UniProt Q00537)", "T3 construct": "purchased Reaction Biology Corporation", "procedure,_shortened": "as §1"}, "[4]": {"target": "T4, CDK19/cyclin C (Homo sapiens, UniProt Q9BWU1)", "T4 construct": "purchased Reaction Biology Corporation", "procedure,_shortened": "as §1"}, "[5]": {"target": "T5, CDK9/cyclin K (Homo sapiens, UniProt P50750)", "T5 construct": "purchased Reaction Biology Corporation", "procedure,_shortened": "as §1"}, "[6]": {"target": "T6, CHK2 (Homo sapiens, UniProt O96017)", "T6 construct": "purchased Reaction Biology Corporation", "procedure,_shortened": "as §1"}, "[7]": {"target": "T7, CK1d (Homo sapiens, UniProt P48730)", "T7 construct": "purchased Reaction Biology Corporation", "procedure,_shortened": "as §1"}, "[8]": {"target": "T8, CK1g3 (Homo sapiens, UniProt Q9Y6M4)", "T8 construct": "purchased Reaction Biology Corporation", "procedure,_shortened": "as §1"}, "[9]": {"target": "T9, DAPK1 (Homo sapiens, UniProt P53355)", "T9 construct": "purchased Reaction Biology Corporation", "procedure,_shortened": "as §1"}, "[10]": {"target": "T10, DMPK (Homo sapiens, UniProt Q09013)", "T10 construct": "purchased Reaction Biology Corporation", "procedure,_shortened": "as §1"}, "[11]": {"target": "T11, DRAK1/STK17A (Homo sapiens, UniProt Q9UEE5)", "T11 construct": "purchased Reaction Biology Corporation", "procedure,_shortened": "as §1"}, "[12]": {"target": "T12, DYRK1B (Homo sapiens, UniProt Q9Y463)", "T12 construct": "purchased Reaction Biology Corporation", "procedure,_shortened": "as §1"}, "[13]": {"target": "T13, DYRK2 (Homo sapiens, UniProt Q92630)", "T13 construct": "purchased Reaction Biology Corporation", "T13 sequence (Q92630 whole entry)": "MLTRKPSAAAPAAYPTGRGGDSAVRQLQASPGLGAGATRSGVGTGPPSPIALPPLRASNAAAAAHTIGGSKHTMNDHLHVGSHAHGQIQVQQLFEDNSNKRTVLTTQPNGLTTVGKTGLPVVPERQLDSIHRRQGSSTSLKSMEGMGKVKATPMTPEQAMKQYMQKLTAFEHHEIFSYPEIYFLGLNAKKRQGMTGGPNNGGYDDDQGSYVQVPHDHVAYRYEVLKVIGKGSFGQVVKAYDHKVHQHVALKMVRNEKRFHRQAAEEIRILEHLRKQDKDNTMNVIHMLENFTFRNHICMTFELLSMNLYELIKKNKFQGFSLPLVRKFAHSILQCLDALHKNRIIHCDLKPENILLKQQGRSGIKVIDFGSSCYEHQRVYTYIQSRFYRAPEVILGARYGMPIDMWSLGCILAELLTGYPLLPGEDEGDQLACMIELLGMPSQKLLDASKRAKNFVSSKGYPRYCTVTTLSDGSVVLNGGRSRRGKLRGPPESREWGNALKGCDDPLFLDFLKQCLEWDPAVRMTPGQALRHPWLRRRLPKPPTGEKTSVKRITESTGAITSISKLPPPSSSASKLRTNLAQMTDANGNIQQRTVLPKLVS", "procedure,_shortened": "as §1"}, "[14]": {"target": "T14, EGFR (Homo sapiens, UniProt P00533)", "T14 construct": "purchased Reaction Biology Corporation", "procedure,_shortened": "as §1"}, "[15]": {"target": "T15, EPHA2 (Homo sapiens, UniProt P29317)", "T15 construct": "purchased Reaction Biology Corporation", "procedure,_shortened": "as §1"}, "[16]": {"target": "T16, EPHB2 (Homo sapiens, UniProt P29323)", "T16 construct": "purchased Reaction Biology Corporation", "procedure,_shortened": "as §1"}, "[17]": {"target": "T17, GRK4 (Homo sapiens, UniProt P32298)", "T17 construct": "purchased Reaction Biology Corporation", "procedure,_shortened": "as §1"}, "[18]": {"target": "T18, IR (Homo sapiens, UniProt P06213)", "T18 construct": "purchased Reaction Biology Corporation", "procedure,_shortened": "as §1"}, "[19]": {"target": "T19, MARK3 (Homo sapiens, UniProt P27448)", "T19 construct": "purchased Reaction Biology Corporation", "procedure,_shortened": "as §1"}, "[20]": {"target": "T20, MKK7 (Homo sapiens, UniProt O14733)", "T20 construct": "purchased Reaction Biology Corporation", "procedure,_shortened": "as §1"}, "[21]": {"target": "T21, MST4 (Homo sapiens, UniProt Q9P289)", "T21 construct": "purchased Reaction Biology Corporation", "procedure,_shortened": "as §1"}, "[22]": {"target": "T22, MYO3b (Homo sapiens, UniProt Q8WXR4)", "T22 construct": "purchased Reaction Biology Corporation", "T22 sequence (Q8WXR4 whole entry)": "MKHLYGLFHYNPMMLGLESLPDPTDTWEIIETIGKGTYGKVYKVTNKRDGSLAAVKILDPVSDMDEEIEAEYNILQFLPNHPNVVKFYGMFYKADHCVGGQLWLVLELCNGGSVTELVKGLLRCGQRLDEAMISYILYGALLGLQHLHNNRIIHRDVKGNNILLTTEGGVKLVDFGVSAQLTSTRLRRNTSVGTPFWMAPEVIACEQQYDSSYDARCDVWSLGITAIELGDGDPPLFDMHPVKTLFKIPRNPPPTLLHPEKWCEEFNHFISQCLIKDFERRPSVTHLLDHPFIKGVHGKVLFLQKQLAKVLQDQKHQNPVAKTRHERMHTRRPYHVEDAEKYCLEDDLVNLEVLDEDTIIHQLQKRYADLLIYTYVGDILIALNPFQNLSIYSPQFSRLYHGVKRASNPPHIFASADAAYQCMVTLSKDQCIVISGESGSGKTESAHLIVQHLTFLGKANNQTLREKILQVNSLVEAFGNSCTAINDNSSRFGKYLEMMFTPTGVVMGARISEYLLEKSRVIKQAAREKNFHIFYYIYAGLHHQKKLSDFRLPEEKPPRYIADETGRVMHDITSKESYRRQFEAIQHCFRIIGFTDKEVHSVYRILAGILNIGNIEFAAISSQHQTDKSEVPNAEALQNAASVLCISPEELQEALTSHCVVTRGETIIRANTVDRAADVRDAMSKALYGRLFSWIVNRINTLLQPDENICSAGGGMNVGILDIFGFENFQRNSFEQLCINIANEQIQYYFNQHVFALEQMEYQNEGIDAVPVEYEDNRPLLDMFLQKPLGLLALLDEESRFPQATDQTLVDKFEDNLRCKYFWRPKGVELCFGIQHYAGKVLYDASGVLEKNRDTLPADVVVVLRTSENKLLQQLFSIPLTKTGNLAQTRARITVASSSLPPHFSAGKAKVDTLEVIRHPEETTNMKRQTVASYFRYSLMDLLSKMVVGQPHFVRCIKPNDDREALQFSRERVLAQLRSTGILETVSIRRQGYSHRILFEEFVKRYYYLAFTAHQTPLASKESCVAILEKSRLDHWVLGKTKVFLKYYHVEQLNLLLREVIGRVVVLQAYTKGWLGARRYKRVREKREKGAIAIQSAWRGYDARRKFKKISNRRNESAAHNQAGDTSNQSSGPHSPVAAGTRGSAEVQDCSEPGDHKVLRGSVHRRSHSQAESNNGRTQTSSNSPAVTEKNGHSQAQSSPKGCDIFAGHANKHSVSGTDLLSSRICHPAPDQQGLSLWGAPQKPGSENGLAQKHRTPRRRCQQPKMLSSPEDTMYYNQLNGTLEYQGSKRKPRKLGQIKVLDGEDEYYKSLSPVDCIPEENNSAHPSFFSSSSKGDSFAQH", "procedure,_shortened": "as §1"}, "[23]": {"target": "T23, NEK8 (Homo sapiens, UniProt Q86SG6)", "T23 construct": "purchased Reaction Biology Corporation", "T23 sequence (Q86SG6 whole entry)": "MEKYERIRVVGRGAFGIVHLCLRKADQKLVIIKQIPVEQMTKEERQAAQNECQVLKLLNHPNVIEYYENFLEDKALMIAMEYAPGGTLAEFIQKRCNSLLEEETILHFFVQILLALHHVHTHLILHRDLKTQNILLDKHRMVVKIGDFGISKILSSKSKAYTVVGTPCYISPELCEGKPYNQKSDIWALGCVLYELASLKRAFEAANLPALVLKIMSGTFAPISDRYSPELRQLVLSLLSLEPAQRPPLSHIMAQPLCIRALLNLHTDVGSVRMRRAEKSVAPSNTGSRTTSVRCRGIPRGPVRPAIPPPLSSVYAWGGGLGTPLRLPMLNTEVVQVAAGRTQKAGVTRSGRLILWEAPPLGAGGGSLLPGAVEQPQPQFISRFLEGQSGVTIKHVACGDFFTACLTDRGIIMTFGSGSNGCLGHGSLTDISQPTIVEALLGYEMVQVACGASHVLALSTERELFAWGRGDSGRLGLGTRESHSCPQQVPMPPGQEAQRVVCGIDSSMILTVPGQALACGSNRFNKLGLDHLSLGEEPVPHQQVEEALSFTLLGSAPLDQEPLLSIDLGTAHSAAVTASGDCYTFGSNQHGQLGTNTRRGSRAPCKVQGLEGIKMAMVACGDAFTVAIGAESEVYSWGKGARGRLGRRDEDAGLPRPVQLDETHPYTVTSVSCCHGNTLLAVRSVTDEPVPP", "procedure,_shortened": "as §1"}, "[24]": {"target": "T24, NIM1 (Homo sapiens, UniProt Q8IY84)", "T24 construct": "purchased Reaction Biology Corporation", "procedure,_shortened": "as §1"}, "[25]": {"target": "T25, P38a/MAPK14 (Homo sapiens, UniProt Q16539)", "T25 construct": "purchased Reaction Biology Corporation", "procedure,_shortened": "as §1"}, "[26]": {"target": "T26, PKCiota (Homo sapiens, UniProt P41743)", "T26 construct": "purchased Reaction Biology Corporation", "procedure,_shortened": "as §1"}, "[27]": {"target": "T27, RIPK4 (Homo sapiens, UniProt P57078)", "T27 construct": "purchased Reaction Biology Corporation", "procedure,_shortened": "as §1"}, "[28]": {"target": "T28, RSK1 (Homo sapiens, UniProt Q15418)", "T28 construct": "purchased Reaction Biology Corporation", "T28 sequence (Q15418 whole entry)": "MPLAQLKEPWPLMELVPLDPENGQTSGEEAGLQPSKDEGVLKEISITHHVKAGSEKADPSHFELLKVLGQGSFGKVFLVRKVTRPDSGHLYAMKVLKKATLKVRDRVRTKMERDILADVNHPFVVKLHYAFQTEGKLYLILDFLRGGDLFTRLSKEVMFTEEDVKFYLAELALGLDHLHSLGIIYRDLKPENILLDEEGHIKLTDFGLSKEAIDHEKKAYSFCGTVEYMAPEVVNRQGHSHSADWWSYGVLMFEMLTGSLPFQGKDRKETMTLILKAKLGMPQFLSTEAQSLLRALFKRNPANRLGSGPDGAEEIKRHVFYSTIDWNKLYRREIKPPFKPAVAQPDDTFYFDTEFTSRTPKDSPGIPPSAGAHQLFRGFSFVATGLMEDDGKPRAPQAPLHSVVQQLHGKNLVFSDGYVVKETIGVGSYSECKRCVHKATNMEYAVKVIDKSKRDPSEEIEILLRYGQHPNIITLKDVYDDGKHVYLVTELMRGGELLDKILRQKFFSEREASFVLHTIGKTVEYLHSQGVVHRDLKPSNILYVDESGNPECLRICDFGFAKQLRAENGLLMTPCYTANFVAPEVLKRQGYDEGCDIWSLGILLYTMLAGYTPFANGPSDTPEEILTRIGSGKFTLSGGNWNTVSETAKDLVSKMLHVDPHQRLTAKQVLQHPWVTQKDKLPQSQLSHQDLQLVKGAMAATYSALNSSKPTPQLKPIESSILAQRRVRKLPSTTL", "procedure,_shortened": "as §1"}, "[29]": {"target": "T29, SGK3/SGKL (Homo sapiens, UniProt Q96BR1)", "T29 construct": "purchased Reaction Biology Corporation", "procedure,_shortened": "as §1"}, "[30]": {"target": "T30, TAOK1 (Homo sapiens, UniProt Q7L7X3)", "T30 construct": "purchased Reaction Biology Corporation", "procedure,_shortened": "as §1"}, "[31]": {"target": "T31, TESK2 (Homo sapiens, UniProt Q96S53)", "T31 construct": "purchased Reaction Biology Corporation", "procedure,_shortened": "as §1"}, "[32]": {"target": "T32, WNK2 (Homo sapiens, UniProt Q9Y3S1)", "T32 construct": "purchased Reaction Biology Corporation", "procedure,_shortened": "as §1"}, "[33]": {"target": "T33, ZAK/MLTK (Homo sapiens, UniProt Q9NYL2)", "T33 construct": "purchased Reaction Biology Corporation", "T33 sequence (Q9NYL2 whole entry)": "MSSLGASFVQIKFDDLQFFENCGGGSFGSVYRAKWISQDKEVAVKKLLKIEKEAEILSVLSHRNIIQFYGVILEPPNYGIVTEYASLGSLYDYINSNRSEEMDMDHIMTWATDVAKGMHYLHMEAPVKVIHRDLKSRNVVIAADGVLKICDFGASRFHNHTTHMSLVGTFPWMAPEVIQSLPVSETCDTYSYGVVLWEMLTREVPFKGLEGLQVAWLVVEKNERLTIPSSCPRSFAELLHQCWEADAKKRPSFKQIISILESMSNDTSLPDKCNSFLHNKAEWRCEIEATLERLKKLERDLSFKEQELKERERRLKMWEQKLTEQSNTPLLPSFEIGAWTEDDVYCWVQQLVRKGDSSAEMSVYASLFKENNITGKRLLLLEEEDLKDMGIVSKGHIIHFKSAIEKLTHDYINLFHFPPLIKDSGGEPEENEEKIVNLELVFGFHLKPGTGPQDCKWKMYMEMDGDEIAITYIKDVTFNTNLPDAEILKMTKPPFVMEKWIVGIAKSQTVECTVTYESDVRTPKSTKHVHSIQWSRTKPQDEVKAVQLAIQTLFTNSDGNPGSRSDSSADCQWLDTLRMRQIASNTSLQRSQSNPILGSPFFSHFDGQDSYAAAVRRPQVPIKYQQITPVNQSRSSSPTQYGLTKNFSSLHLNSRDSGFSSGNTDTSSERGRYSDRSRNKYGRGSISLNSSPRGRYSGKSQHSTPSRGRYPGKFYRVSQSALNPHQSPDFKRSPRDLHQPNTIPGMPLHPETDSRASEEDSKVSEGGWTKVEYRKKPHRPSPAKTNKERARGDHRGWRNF", "procedure,_shortened": "as §1"}}}
{"compound": "CC(=O)Nc1nc2ccc(-c3cnc(C)c(NC(=O)OC4CCCCC4)c3)cc2s1", "note": "[PK68, cyclohexyl (5-(2-acetamidobenzo[d]thiazol-6-yl)-2-methylpyridin-3-yl)carbamate]", "values": [{"measurement": "Activity%", "setting": "[1]; 1 μM", "value": 98.13, "unit": "%"}, {"measurement": "activity at 1 µM", "setting": "[1]", "value": 98.9, "unit": "%"}, {"measurement": "Activity%", "setting": "[2]; 1 μM", "value": 96.97, "unit": "%"}, {"measurement": "activity at 1 µM", "setting": "[2]", "value": 97.4, "unit": "%"}, {"measurement": "Activity%", "setting": "[3]; 1 μM", "value": 77.31, "unit": "%"}, {"measurement": "activity at 1 µM", "setting": "[3]", "value": 79, "unit": "%"}, {"measurement": "Activity%", "setting": "[4]; 1 μM", "value": 99.34, "unit": "%"}, {"measurement": "activity at 1 µM", "setting": "[4]", "value": 101, "unit": "%"}, {"measurement": "Activity%", "setting": "[5]; 1 μM", "value": 104.96, "unit": "%"}, {"measurement": "activity at 1 µM", "setting": "[5]", "value": 106, "unit": "%"}, {"measurement": "Activity%", "setting": "[6]; 1 μM", "value": 98.81, "unit": "%"}, {"measurement": "activity at 1 µM", "setting": "[6]", "value": 99.1, "unit": "%"}, {"measurement": "Activity%", "setting": "[7]; 1 μM", "value": 103.42, "unit": "%"}, {"measurement": "activity at 1 µM", "setting": "[7]", "value": 105, "unit": "%"}, {"measurement": "Activity%", "setting": "[8]; 1 μM", "value": 87.02, "unit": "%"}, {"measurement": "activity at 1 µM", "setting": "[8]", "value": 87.1, "unit": "%"}, {"measurement": "Activity%", "setting": "[9]; 1 μM", "value": 87.16, "unit": "%"}, {"measurement": "activity at 1 µM", "setting": "[9]", "value": 88.5, "unit": "%"}, {"measurement": "Activity%", "setting": "[10]; 1 μM", "value": 100.30, "unit": "%"}, {"measurement": "activity at 1 µM", "setting": "[10]", "value": 101, "unit": "%"}, {"measurement": "Activity%", "setting": "[11]; 1 μM", "value": 90.72, "unit": "%"}, {"measurement": "activity at 1 µM", "setting": "[11]", "value": 91.3, "unit": "%"}, {"measurement": "Activity%", "setting": "[12]; 1 μM", "value": 97.55, "unit": "%"}, {"measurement": "activity at 1 µM", "setting": "[12]", "value": 99.4, "unit": "%"}, {"measurement": "Activity%", "setting": "[13]; 1 μM", "value": 85.35, "unit": "%"}, {"measurement": "activity at 1 µM", "setting": "[13]", "value": 86.3, "unit": "%"}, {"measurement": "Activity%", "setting": "[14]; 1 μM", "value": 99.30, "unit": "%"}, {"measurement": "activity at 1 µM", "setting": "[14]", "value": 99.7, "unit": "%"}, {"measurement": "Activity%", "setting": "[15]; 1 μM", "value": 94.92, "unit": "%"}, {"measurement": "activity at 1 µM", "setting": "[15]", "value": 95.2, "unit": "%"}, {"measurement": "Activity%", "setting": "[16]; 1 μM", "value": 101.30, "unit": "%"}, {"measurement": "activity at 1 µM", "setting": "[16]", "value": 102, "unit": "%"}, {"measurement": "Activity%", "setting": "[17]; 1 μM", "value": 103.31, "unit": "%"}, {"measurement": "activity at 1 µM", "setting": "[17]", "value": 107, "unit": "%"}, {"measurement": "Activity%", "setting": "[18]; 1 μM", "value": 81.00, "unit": "%"}, {"measurement": "activity at 1 µM", "setting": "[18]", "value": 81.6, "unit": "%"}, {"measurement": "Activity%", "setting": "[19]; 1 μM", "value": 103.78, "unit": "%"}, {"measurement": "activity at 1 µM", "setting": "[19]", "value": 104, "unit": "%"}, {"measurement": "Activity%", "setting": "[20]; 1 μM", "value": 93.03, "unit": "%"}, {"measurement": "activity at 1 µM", "setting": "[20]", "value": 98, "unit": "%"}, {"measurement": "Activity%", "setting": "[21]; 1 μM", "value": 101.18, "unit": "%"}, {"measurement": "activity at 1 µM", "setting": "[21]", "value": 102, "unit": "%"}, {"measurement": "Activity%", "setting": "[22]; 1 μM", "value": 99.36, "unit": "%"}, {"measurement": "activity at 1 µM", "setting": "[22]", "value": 99.9, "unit": "%"}, {"measurement": "Activity%", "setting": "[23]; 1 μM", "value": 79.27, "unit": "%"}, {"measurement": "activity at 1 µM", "setting": "[23]", "value": 79.9, "unit": "%"}, {"measurement": "Activity%", "setting": "[24]; 1 μM", "value": 96.79, "unit": "%"}, {"measurement": "activity at 1 µM", "setting": "[24]", "value": 97.5, "unit": "%"}, {"measurement": "Activity%", "setting": "[25]; 1 μM", "value": 102.59, "unit": "%"}, {"measurement": "activity at 1 µM", "setting": "[25]", "value": 106, "unit": "%"}, {"measurement": "Activity%", "setting": "[26]; 1 μM", "value": 92.87, "unit": "%"}, {"measurement": "activity at 1 µM", "setting": "[26]", "value": 97, "unit": "%"}, {"measurement": "Activity%", "setting": "[27]; 1 μM", "value": 92.60, "unit": "%"}, {"measurement": "activity at 1 µM", "setting": "[27]", "value": 94.5, "unit": "%"}, {"measurement": "Activity%", "setting": "[28]; 1 μM", "value": 98.15, "unit": "%"}, {"measurement": "activity at 1 µM", "setting": "[28]", "value": 100, "unit": "%"}, {"measurement": "Activity%", "setting": "[29]; 1 μM", "value": 99.59, "unit": "%"}, {"measurement": "activity at 1 µM", "setting": "[29]", "value": 102, "unit": "%"}, {"measurement": "Activity%", "setting": "[30]; 1 μM", "value": 79.31, "unit": "%"}, {"measurement": "activity at 1 µM", "setting": "[30]", "value": 79.8, "unit": "%"}, {"measurement": "Activity%", "setting": "[31]; 1 μM", "value": 92.21, "unit": "%"}, {"measurement": "activity at 1 µM", "setting": "[31]", "value": 94.3, "unit": "%"}, {"measurement": "Activity%", "setting": "[32]; 1 μM", "value": 94.21, "unit": "%"}, {"measurement": "activity at 1 µM", "setting": "[32]", "value": 94.6, "unit": "%"}, {"measurement": "Activity%", "setting": "[33]; 1 μM", "value": 66.51, "unit": "%"}, {"measurement": "activity at 1 µM", "setting": "[33]", "value": 68.6, "unit": "%"}]}
